Laboratory results: ChEMBL document CHEMBL4359834 (J Med Chem, 2019)
The source made the active and inactive calls. The calls are words filed in the database; no cut-off is given here.

How the values were obtained:
[1] = Inhibition of Class 1 PI3K/mTOR in human A2058 cells assessed as reduction in Akt phosphorylation at Ser473 residue incubated for 1 hr by InCell Western assay; format: cell-based; conditions: A2058, 1 h
[2] = cells; conditions: Homo sapiens, A2058, 1 h
Description: Inhibition of Class 1 PI3K/mTOR in human A2058 cells assessed as reduction in S6 phosphorylation at Ser235/236 residue incubated for 1 hr by InCell Western assay

[3] = molecular target: Phosphatidylinositol 4,5-bisphosphate 3-kinase catalytic subunit alpha isoform (Homo sapiens, UniProt P42336); assay: Displacement of Alexafluor labelled kinase tracer314 from recombinant N-terminal His6-tagged PI3K p110alpha (unknown origin) incubated for 1 hr by FRET-based LanthaScreen Eu kinase binding assay
[4] = molecular target: Serine/threonine-protein kinase mTOR (Homo sapiens, UniProt P42345); assay: Displacement of Alexafluor labelled kinase tracer314 from recombinant human C-terminal GST-tagged mTOR (1360 to 2549 amino acids) expressed in insect cells incubated for 1 hr by FRET-based LanthaScreen Eu kinase binding assay
[5] = test system: A2058; assay: Antiproliferative activity against human A2058 cells at 5 to 0.02 uM after 72 hrs by […] staining based assay; format: functional, cell-based
[6] = test system: SK-OV-3; assay: Antiproliferative activity against human SKOV3 cells at 5 to 0.02 uM after 72 hrs by […] staining based assay; format: functional, cell-based
[7] = Intrinsic clearance in human hepatocytes assessed per 10^6 cells; format: ADME, cell-based, Hepatocyte; conditions: read-out: CLH
[8] = Intrinsic clearance in rat hepatocytes assessed per 10^6 cells; format: ADME, cell-based, Hepatocyte; conditions: read-out: CLH
[9] = Intrinsic clearance in mouse hepatocytes assessed per 10^6 cells; format: ADME, cell-based, Hepatocyte; conditions: read-out: CLH
[10] = Half-life in rat hepatocytes; format: ADME, cell-based, Hepatocyte
[11] = Intrinsic clearance in dog hepatocytes assessed per 10^6 cells; format: ADME, cell-based, Canis lupus familiaris, Hepatocyte; conditions: read-out: CLH
[12] = Half-life in mouse hepatocytes; format: ADME, cell-based, Hepatocyte
[13] = Half-life clearance in human hepatocytes; format: ADME, cell-based, Hepatocyte
[14] = Half-life in dog hepatocytes; format: ADME, cell-based, Canis lupus familiaris, Hepatocyte

Sequence of Phosphatidylinositol 4,5-bisphosphate 3-kinase catalytic subunit alpha isoform (P42336 whole entry, the tested form may be a part, canonical isoform): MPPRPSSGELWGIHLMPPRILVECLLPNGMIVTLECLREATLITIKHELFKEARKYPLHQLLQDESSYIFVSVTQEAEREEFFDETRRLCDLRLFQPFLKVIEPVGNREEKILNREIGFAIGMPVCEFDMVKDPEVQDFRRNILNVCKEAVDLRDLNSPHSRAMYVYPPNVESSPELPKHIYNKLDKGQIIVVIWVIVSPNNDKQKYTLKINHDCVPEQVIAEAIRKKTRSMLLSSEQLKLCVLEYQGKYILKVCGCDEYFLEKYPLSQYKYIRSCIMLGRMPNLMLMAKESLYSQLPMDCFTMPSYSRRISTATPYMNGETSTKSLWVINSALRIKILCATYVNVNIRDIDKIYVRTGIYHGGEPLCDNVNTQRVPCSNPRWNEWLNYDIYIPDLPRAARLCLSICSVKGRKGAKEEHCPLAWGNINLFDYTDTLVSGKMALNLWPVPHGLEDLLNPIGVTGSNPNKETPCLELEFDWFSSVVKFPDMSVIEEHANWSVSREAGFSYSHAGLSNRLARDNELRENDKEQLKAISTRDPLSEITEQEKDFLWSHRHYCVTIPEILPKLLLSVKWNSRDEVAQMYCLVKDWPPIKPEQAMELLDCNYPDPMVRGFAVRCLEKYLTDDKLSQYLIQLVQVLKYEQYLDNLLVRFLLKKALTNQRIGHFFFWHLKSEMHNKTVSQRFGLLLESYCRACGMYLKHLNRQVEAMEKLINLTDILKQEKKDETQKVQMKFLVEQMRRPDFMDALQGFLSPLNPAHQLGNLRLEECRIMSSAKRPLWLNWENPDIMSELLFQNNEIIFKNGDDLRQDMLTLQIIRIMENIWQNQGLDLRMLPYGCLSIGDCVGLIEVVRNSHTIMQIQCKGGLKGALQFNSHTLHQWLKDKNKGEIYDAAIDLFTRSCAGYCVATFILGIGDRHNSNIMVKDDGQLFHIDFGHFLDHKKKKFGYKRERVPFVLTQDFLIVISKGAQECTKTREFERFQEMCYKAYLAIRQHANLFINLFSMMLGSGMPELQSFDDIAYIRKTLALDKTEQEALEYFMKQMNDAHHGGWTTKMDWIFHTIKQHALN

| Compound | IC50 [1] | IC50 [2] | Ki [3] | Ki [4] | further results |
| --- | --- | --- | --- | --- | --- |
| Nc1cc(C(F)(F)F)c(-c2nc(N3CCOCC3)nc(N3CCOCC3)n2)cn1 | – | – | – | – | Activity [5]: Active; Activity [6]: Active |
| C[C@H]1COC[C@H](C)N1c1nc(-c2cnc(N)cc2C(F)(F)F)nc(N2[C@@H](C)COC[C@@H]2C)n1 | 610 nM | 531 nM | 37 nM | 265 nM | – |
| Nc1cc(C(F)(F)F)c(-c2nc(N3CCOCC3)nc(N3CC4CCC(C3)O4)n2)cn1 | 274 nM | 212 nM | 31 nM | 47.8 nM | – |
| CCOc1ccc2ccc(=O)oc2c1 | – | – | – | – | hepatocyte CLint [7]: 20 µL/min/1e6 cells; hepatocyte CLint [8]: 30 µL/min/1e6 cells; hepatocyte CLint [9]: 74 µL/min/1e6 cells; half-life [10]: 46.2 min; hepatocyte CLint [11]: 163 µL/min/1e6 cells; half-life [12]: 18.7 min; half-life [13]: 70 min; half-life [14]: 8.49 min |
| Nc1cc(C(F)(F)F)c(-c2nc(N3C4CCC3COC4)nc(N3C4CCC3COC4)n2)cn1 | 755 nM | 299 nM | 4640 nM | 76.8 nM | – |
| C[C@@H]1COC[C@@H](C)N1c1nc(-c2cnc(N)cc2C(F)(F)F)nc(N2[C@H](C)COC[C@H]2C)n1 | > 20000 nM | 14500 nM | > 20000 nM | 1890 nM | – |

Further lines, with some results ahead:

| IC50 [1] | IC50 [2] | Ki [3] | Ki [4] | Compound | further results |
| --- | --- | --- | --- | --- | --- |
| 122 nM | 135 nM | 27.4 nM | 19.3 nM | C[C@@H]1COC[C@H](C)N1c1nc(-c2cnc(N)cc2C(F)(F)F)nc(N2CCOCC2)n1 | – |
| 614 nM | 766 nM | 13.7 nM | 42.3 nM | C[C@H]1COCCN1c1cc(-c2cnc(N)cc2C(F)F)nc(N2CCOCC2)n1 | – |
| 146 nM | 125 nM | – | 10 nM | C[C@H]1COCCN1c1nc(-c2cnc(N)cc2C(F)F)cc(N2CCOCC2)n1 | – |
| 1700 nM | 1120 nM | 684 nM | 171 nM | C[C@@H]1COCCN1c1nc(-c2cnc(N)cc2C(F)(F)F)nc(N2CCOC[C@H]2C)n1 | – |
| 435 nM | 457 nM | 88.9 nM | 64.5 nM | C[C@@H]1COC[C@@H](C)N1c1nc(-c2cnc(N)cc2C(F)(F)F)nc(N2CCOCC2)n1 | – |
| 100 nM | 126 nM | 15.2 nM | 59.2 nM | C[C@H]1COC[C@H](C)N1c1nc(-c2cnc(N)cc2C(F)(F)F)nc(N2CCOCC2)n1 | – |
